Species: Rattus norvegicus
Test: Open TG-GATES - Regimen: Single
Assay type: toxicity, organism-based, Sprague-Dawley
Parameters: regimen Single, gender Male, age 6 weeks
Details: in vivo, po, 45 mg/kg, route gavage, dose level High; for APTT / Bas / Eos / Fbg / Hb / Ht / Lym / MCH / MCHC / MCV / Mono / Neu / PT / Plat / RBC / Ret / WBC: tissue Blood; for KIDNEY_L / KIDNEY_R / KIDNEY_TOTAL: tissue Kidney; for LIVER: tissue Liver; for A/G / ALP / ALT / AST / BUN / CRE / Ca / Cl / DBIL / GLC / IP / K / LDH / Na / PL / RALB / TBIL / TC / TG / TP / gamma-GTP: tissue Plasma

CC(=N)S [THIOACETAMIDE]
TERMINAL_BW (3 h): 189.5 g | APTT (3 h): 17.3 s | Bas (3 h): 0% | Eos (3 h): 0.6% | Fbg (3 h): 232.5 mg/dL | Hb (3 h): 13.5 g/dL | Ht (3 h): 41% | Lym (3 h): 71.2% | MCH (3 h): 21.6 pg | MCHC (3 h): 33% | MCV (3 h): 65.4 fL | Mono (3 h): 8.6% | Neu (3 h): 20% | PT (3 h): 12.4 s | Plat (3 h): 115.5 x10_4/uL | RBC (3 h): 627 x10_4/ul | Ret (3 h): 9.5% | WBC (3 h): 129.7 x10_2/uL | KIDNEY_L (3 h): 0.8 g | KIDNEY_R (3 h): 0.8 g | KIDNEY_TOTAL (3 h): 1.7 g | LIVER (3 h): 8.7 g | A/G (3 h): 2 | ALP (3 h): 923 IU/L | ALT (3 h): 36 IU/L | AST (3 h): 73.6 IU/L | BUN (3 h): 13.6 mg/dL | CRE (3 h): 0.5 mg/dL | Ca (3 h): 10.9 mg/dL | Cl (3 h): 104.6 meq/L | DBIL (3 h): 0 mg/dL | GLC (3 h): 169.2 mg/dL | IP (3 h): 9.7 mg/dL | K (3 h): 4.4 meq/L | LDH (3 h): 200.6 IU/L | Na (3 h): 139.6 meq/L | PL (3 h): 137.6 mg/dL | RALB (3 h): 3.8 g/dL | TBIL (3 h): 0.4 mg/dL | TC (3 h): 84 mg/dL | TG (3 h): 54.8 mg/dL | TP (3 h): 5.6 g/dL | gamma-GTP (3 h): 2 IU/L | TERMINAL_BW (6 h): 187 g | APTT (6 h): 17.2 s | Bas (6 h): 0% | Eos (6 h): 0.2% | Fbg (6 h): 230.4 mg/dL | Hb (6 h): 13.7 g/dL | Ht (6 h): 41.3% | Lym (6 h): 71% | MCH (6 h): 21.8 pg | MCHC (6 h): 33.1% | MCV (6 h): 66 fL | Mono (6 h): 6.2% | Neu (6 h): 22.2% | PT (6 h): 12.9 s | Plat (6 h): 104.7 x10_4/uL | RBC (6 h): 627.2 x10_4/ul | Ret (6 h): 9.9% | WBC (6 h): 118 x10_2/uL | KIDNEY_L (6 h): 0.8 g | KIDNEY_R (6 h): 0.8 g | KIDNEY_TOTAL (6 h): 1.6 g | LIVER (6 h): 8 g | A/G (6 h): 1.9 | ALP (6 h): 836.6 IU/L | ALT (6 h): 33.8 IU/L | AST (6 h): 75.2 IU/L | BUN (6 h): 10.2 mg/dL | CRE (6 h): 0.6 mg/dL | Ca (6 h): 10.4 mg/dL | Cl (6 h): 104.4 meq/L | DBIL (6 h): 0.024 mg/dL | GLC (6 h): 162.4 mg/dL | IP (6 h): 9.9 mg/dL | K (6 h): 4.7 meq/L | LDH (6 h): 155.4 IU/L | Na (6 h): 138.2 meq/L | PL (6 h): 129.8 mg/dL | RALB (6 h): 3.6 g/dL | TBIL (6 h): 0.4 mg/dL | TC (6 h): 79.4 mg/dL | TG (6 h): 34.8 mg/dL | TP (6 h): 5.5 g/dL | gamma-GTP (6 h): 1.8 IU/L | TERMINAL_BW (9 h): 189.4 g | APTT (9 h): 17 s | Bas (9 h): 0% | Eos (9 h): 0.6% | Fbg (9 h): 224.4 mg/dL | Hb (9 h): 13.1 g/dL | Ht (9 h): 39.6% | Lym (9 h): 71% | MCH (9 h): 21.8 pg | MCHC (9 h): 33% | MCV (9 h): 66 fL | Mono (9 h): 7.4% | Neu (9 h): 21% | PT (9 h): 14.1 s | Plat (9 h): 100.8 x10_4/uL | RBC (9 h): 600 x10_4/ul | Ret (9 h): 10% | WBC (9 h): 126.2 x10_2/uL | KIDNEY_L (9 h): 0.8 g | KIDNEY_R (9 h): 0.9 g | KIDNEY_TOTAL (9 h): 1.7 g | LIVER (9 h): 8 g | A/G (9 h): 2 | ALP (9 h): 886 IU/L | ALT (9 h): 41.2 IU/L | AST (9 h): 93.2 IU/L | BUN (9 h): 12.6 mg/dL | CRE (9 h): 0.5 mg/dL | Ca (9 h): 10.4 mg/dL | Cl (9 h): 104.6 meq/L | DBIL (9 h): 0.008 mg/dL | GLC (9 h): 168.4 mg/dL | IP (9 h): 10.4 mg/dL | K (9 h): 4.4 meq/L | LDH (9 h): 229.2 IU/L | Na (9 h): 137.4 meq/L | PL (9 h): 134.8 mg/dL | RALB (9 h): 3.6 g/dL | TBIL (9 h): 0.4 mg/dL | TC (9 h): 84.8 mg/dL | TG (9 h): 32.4 mg/dL | TP (9 h): 5.4 g/dL | gamma-GTP (9 h): 1.8 IU/L | TERMINAL_BW (24 h): 186.6 g | APTT (24 h): 21.2 s | Bas (24 h): 0% | Eos (24 h): 0.6% | Fbg (24 h): 232 mg/dL | Hb (24 h): 14.7 g/dL | Ht (24 h): 44.9% | Lym (24 h): 69.8% | MCH (24 h): 21.2 pg | MCHC (24 h): 32.8% | MCV (24 h): 64.6 fL | Mono (24 h): 1.8% | Neu (24 h): 27.8% | PT (24 h): 15.7 s | Plat (24 h): 104.8 x10_4/uL | RBC (24 h): 695.6 x10_4/ul | Ret (24 h): 9% | WBC (24 h): 91 x10_2/uL | KIDNEY_L (24 h): 0.9 g | KIDNEY_R (24 h): 0.9 g | KIDNEY_TOTAL (24 h): 1.8 g | LIVER (24 h): 9.3 g | A/G (24 h): 2 | ALP (24 h): 1017.6 IU/L | ALT (24 h): 137.2 IU/L | AST (24 h): 713.8 IU/L | BUN (24 h): 15.2 mg/dL | CRE (24 h): 0.5 mg/dL | Ca (24 h): 10.4 mg/dL | Cl (24 h): 102.4 meq/L | DBIL (24 h): 0.046 mg/dL | GLC (24 h): 152 mg/dL | IP (24 h): 8.5 mg/dL | K (24 h): 4.7 meq/L | LDH (24 h): 1117 IU/L | Na (24 h): 135.8 meq/L | PL (24 h): 142 mg/dL | RALB (24 h): 3.8 g/dL | TBIL (24 h): 0.3 mg/dL | TC (24 h): 86.8 mg/dL | TG (24 h): 64.6 mg/dL | TP (24 h): 5.8 g/dL | gamma-GTP (24 h): 1 IU/L

From ChEMBL document CHEMBL3885861, “Open TG-GATES”
